Assay results: PubChem BioAssay AID248 (DTP/NCI, 2004)
Toxic doses and inconclusive results are not listed. No stated cut-off is given here; in the data, active means T/C of 150% or more; inactive means T/C below 125%.

System: L1210 leukemia ip in BDF1 mice, survival T/C
Test: NCI In Vivo Anticancer Drug Screen. Data for tumor model L1210 Leukemia (intraperitoneal) in B6D2F1 (BDF1) mice
Settings: endpoint: mean survival time, higher = longer survival
Summary of the method: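 In this screen, tumor-bearing mice given compound are compared to those given vehicle, and their survival values are reported as a treated-to-control quotient.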

[1] = dose: 100.0 mg/kg/injection, schedule: Q04DX003 (ip), vehicle: saline with Tween-80
[2] = dose: 100.0 mg/kg/injection, schedule: Q01DX009 (ip), vehicle: saline with Tween-80
[3] = dose: 200.0 mg/kg/injection, schedule: Q01DX009 (ip), vehicle: saline with Tween-80
[4] = dose: 100.0 mg/kg/injection, schedule: Q04DX003 (ip), vehicle: saline
[5] = dose: 100.0 mg/kg/injection, schedule: Q04DX002 (ip), vehicle: Klucel (hydroxypropylcellulose) (HPC)
[6] = dose: 200.0 mg/kg/injection, schedule: Q04DX002 (ip), vehicle: Klucel (hydroxypropylcellulose) (HPC)
[7] = dose: 100.0 mg/kg/injection, schedule: Q01DX001 (ip), vehicle: saline
[8] = dose: 200.0 mg/kg/injection, schedule: Q01DX001 (ip), vehicle: saline
[9] = dose: 400.0 mg/kg/injection, schedule: Q01DX009 (ip), vehicle: saline with Tween-80
[10] = dose: 50.0 mg/kg/injection, schedule: Q01DX001 (ip), vehicle: saline
[11] = dose: 400.0 mg/kg/injection, schedule: Q01DX001 (ip), vehicle: saline
[12] = dose: 400.0 mg/kg/injection, schedule: Q04DX002 (ip), vehicle: Klucel (hydroxypropylcellulose) (HPC)

Measured: T/C

ClC1=C(Cl)C2(Cl)C3(Cl)C(Cl)=C(Cl)C(Cl)(C3c3ccccc3)C2(Cl)C1c1ccccc1 (configuration not stated)
inactive: dose: 50.0 mg/kg/injection, schedule: Q04DX003 (ip), vehicle: Klucel (hydroxypropylcellulose) (HPC) 94 % of control | dose: 100.0 mg/kg/injection, schedule: Q01DX009 (ip), vehicle: saline sonified 96 % of control | dose: 100.0 mg/kg/injection, schedule: Q04DX003 (ip), vehicle: Klucel (hydroxypropylcellulose) (HPC) 97 % of control | dose: 200.0 mg/kg/injection, schedule: Q01DX009 (ip), vehicle: saline sonified 96 % of control | dose: 200.0 mg/kg/injection, schedule: Q04DX003 (ip), vehicle: Klucel (hydroxypropylcellulose) (HPC) 89 % of control | dose: 400.0 mg/kg/injection, schedule: Q01DX009 (ip), vehicle: saline sonified 91 % of control

O=C1CSC(=S)N1c1ccccc1
inactive: dose: 100.0 mg/kg/injection, schedule: Q01DX001 (ip), vehicle: carboxymethylcellulose (CMC) 95 % of control | [1] 96 % of control | dose: 200.0 mg/kg/injection, schedule: Q01DX001 (ip), vehicle: carboxymethylcellulose (CMC) 97 % of control | dose: 200.0 mg/kg/injection, schedule: Q04DX003 (ip), vehicle: saline with Tween-80 93 % of control | dose: 400.0 mg/kg/injection, schedule: Q01DX001 (ip), vehicle: carboxymethylcellulose (CMC) 93 % of control | dose: 400.0 mg/kg/injection, schedule: Q04DX003 (ip), vehicle: saline with Tween-80 90 % of control

COc1ccc(C2=NNC(c3ccc(OC)cc3)=NN2)cc1
inactive: dose: 100.0 mg/kg/injection, schedule: Q01DX001 (ip), vehicle: other 104 % of control | dose: 200.0 mg/kg/injection, schedule: Q01DX001 (ip), vehicle: other 96 % of control | dose: 400.0 mg/kg/injection, schedule: Q01DX001 (ip), vehicle: other 93 % of control

Cc1ccc(C(C)NC2=NCCO2)c(C)c1 (configuration not stated)
inactive: [1] 105 % of control

CCOC(=O)C(=O)CC1CCCCC1
inactive: dose: 50.0 mg/kg/injection, schedule: Q01DX009 (ip), vehicle: saline with Tween-80 92 % of control | [2] 100 % of control | [3] 100 % of control

COc1cccc(CCNC(=O)CC(=O)O)c1OC
inactive: [4] 92 % of control | dose: 200.0 mg/kg/injection, schedule: Q04DX003 (ip), vehicle: saline 103 % of control | dose: 400.0 mg/kg/injection, schedule: Q04DX003 (ip), vehicle: saline 110 % of control

Oc1ccc(O)c(-c2cc3c(O)ccc(O)c3[nH]2)c1
inactive: dose: 25.0 mg/kg/injection, schedule: Q04DX002 (ip), vehicle: Klucel (hydroxypropylcellulose) (HPC) 104 % of control | dose: 50.0 mg/kg/injection, schedule: Q04DX002 (ip), vehicle: Klucel (hydroxypropylcellulose) (HPC) 93 % of control | [5] 104 % of control | [6] 96 % of control

CCOC(=N)CC(=N)OCC
inactive: dose: 100.0 mg/kg/injection, schedule: Q01DX009 (ip), vehicle: water 96 % of control | dose: 100.0 mg/kg/injection, schedule: Q04DX003 (ip), vehicle: water 97 % of control | dose: 200.0 mg/kg/injection, schedule: Q01DX009 (ip), vehicle: water 101 % of control | dose: 200.0 mg/kg/injection, schedule: Q04DX003 (ip), vehicle: water 93 % of control | dose: 400.0 mg/kg/injection, schedule: Q01DX009 (ip), vehicle: water 97 % of control | dose: 400.0 mg/kg/injection, schedule: Q04DX003 (ip), vehicle: water 97 % of control

c1ccc(CNc2cnccn2)cc1
inactive: [7] 105 % of control | [8] 105 % of control

CCN(CC)CC(=O)N1Cc2ccccc2CCc2ccccc2C1
inactive: [4] 92 % of control

COC1OC2COc3ccccc3OC2C(NC#N)C1O (configuration not stated)
inactive: [2] 97 % of control | [3] 96 % of control | [9] 89 % of control

CCCCCOc1cc(C(C)=O)cc(OC)c1OC(=O)c1cc([N+](=O)[O-])cc([N+](=O)[O-])c1
inactive: [2] 94 % of control | [3] 94 % of control | [9] 102 % of control

CCOC(=O)C(C(=O)OCC)c1cccc(Cl)c1
inactive: [10] 106 % of control | [7] 109 % of control | [8] 103 % of control | [11] 103 % of control

Cc1nnc(N)nc1C
inactive: [5] 95 % of control | [6] 103 % of control | [12] 95 % of control

C=CCNC(=O)/C=C\C(=O)O
inactive: [5] 99 % of control | [6] 96 % of control

CCN1CCC2CN(C)CCN2C1=S (configuration not stated)
inactive: dose: 25.0 mg/kg/injection, schedule: Q04DX003 (ip), vehicle: saline 98 % of control | dose: 50.0 mg/kg/injection, schedule: Q04DX003 (ip), vehicle: saline 105 % of control | [7] 92 % of control | [4] 94 % of control

O=C1C(=O)C(c2ccccc2)Oc2ccccc21 (configuration not stated)
inactive: [10] 89 % of control | [7] 101 % of control | [8] 98 % of control | [11] 95 % of control

c1ccc(C(c2ccccc2)c2ccccn2)cc1
inactive: dose: 50.0 mg/kg/injection, schedule: Q04DX002 (ip), vehicle: other 95 % of control | [5] 98 % of control | dose: 100.0 mg/kg/injection, schedule: Q04DX002 (ip), vehicle: other 95 % of control | dose: 100.0 mg/kg/injection, schedule: Q04DX003 (ip), vehicle: other 103 % of control | [6] 102 % of control | dose: 200.0 mg/kg/injection, schedule: Q04DX002 (ip), vehicle: other 95 % of control | dose: 200.0 mg/kg/injection, schedule: Q04DX003 (ip), vehicle: other 117 % of control | [12] 106 % of control | dose: 400.0 mg/kg/injection, schedule: Q04DX003 (ip), vehicle: other 111 % of control
